Measurements published in patent US4868158A, “Method for the production of a macromolecular carrier loaded with a biologically active substance” (Oncholab AB, priority 1985, dated 1989).

Tested on: WEHI-3B cells, a murine monomyelocytic cell line
Settings: 1.0 million WEHI-3B cells i.p.; 1.9 mg AD-32/kg/day i.p. for five days
Protocol: Balb/C mice were injected intraperitonally (i.p.) with 1.0 million WEHI-3B cells, a murine monomyelocytic cell line. […] The AD-32 was administered i.p. dissolved in a mixture of ethanol and castor oil.

For `CCCCC(=O)OCC(=O)C1(O)Cc2c(O)c3c(c(O)c2C(OC2CC(NC(=O)C(F)(F)F)C(O)C(C)O2)C1)C(=O)c1c(OC)cccc1C3=O` (stereo not shown) [AD-32, N-trifluoroacetyladriamycin-14-valerate], the “ILS, Increased Life Span” value was 2%.
